Assay results from EP1566447A1, “Glimepiride- and insulin-induced glycosylphosphatidylinositol-specific phospholipase C regulation” (priority 2004, dated 2005).
Entries after “also recorded” stand apart in the source; their conditions may differ.

Key:
[1] = tested on: rat liver PI-PLC; assay: selectivity: mammalian PI-PLC assay; type: biochemical; conditions: 50 µM
Description: Hormone-sensitive lipase (HSL) and lipoprotein lipase (LPL) were measured using a radiolabeled triolein droplet emulsion as described in "Vertesy et al., (2002) Journal Antibiotics 55:480-494". Pancreatic lipase (PL) was determined by incubation of 0.25 mmol tributyrin in 2 ml of 5 mM Tris/HCl (pH 6.5), 6 mM sodium taurodeoxycholate, 150 mM NaCl, 1 mM CaCl2 with porcine PL and colipase in the same buffer using a recording pH stat (stirring at 1000 rpm at 25°C) with the pH adjusted to 6.5. PC-PLC was assayed by incubation of 0.2 ml of 10 mM dipalmitoyllecithin, 0.1 ml of 10 mM SDC and 0.1 ml of 0.03 M CaCl2 with bacterial PC-PLC (in 50 mM Tris/HCl, pH 7.5, 0.1 % BSA) for 10 min at 37°C. The reaction was terminated by addition of 0.1 ml of 50 % TCA and subsequently of 2.5 ml of […]. After centrifugation (1500xg, 15 min), 0.2-ml portions of the upper methanol/water phase (~ 1.33 ml) was removed, supplemented with 0.5 ml of 60 % HClO4, then heated at 170°C for 1 h and finally analyzed for inorganic phosphate. Mammalian PI-PLC was measured by incubation of 0.1 ml of 10 mM PI, 0.1 ml of 0.8 % sodium deoxycholate, 0.1 % BSA, 0.2 ml of 100 mM sodium borate (pH 7.5) and rat liver PI-PLC for 20 min at 37°C. The reaction was terminated and further processed as described for the PC-PLC. […] Radioactive phosphatidic acid was detected by phosphorimaging. […]

[2] = tested on: Isolated rat adipocytes; assay: localization of lipolytically cleaved and uncleaved GPI-proteins at hcDIGs, IcDIGs and total plasma membranes; type: cell-based; conditions: GPI-2350 50 µM, insulin 10 nM, glimepiride 20 µM
[3] = tested on: rat adipocytes; assay: glucose transport assay; type: cell-based
Description: Glucose transport was determined as described in "Müller, G. et al., (1994) J. Cell Biol. 126: 1267-1276" by incubation of 10,000-20,000 washed adipocytes with 2-deoxy-D-[2,6-^3H]glucose at 50 µM final conc. (0.33 µCi/ml) in 50-µl portions for 20 min at 37°C in the absence or presence of 20 µM cytochalasin B.
Table 3: Isolated rat adipocytes were incubated in the presence of methyl-β-cyclodextrin (m-β-CD, 10 mM, 50 min), CBDP (300 µM, electroporation, followed by washing and subsequent incubation for 30 min), PIG41 (10 µM, 15 min), sodium orthovanadate (1 mM, 15 min), trypsin (10 µg/ml, 15 min followed by treatment with 0.5 M NaCl and subsequent washing) and N-ethylmaleimide (1 mM, 5 min followed by addition of DTT). After addition of GPI-2350 (50 µM final conc.) to one half of the adipocyte suspension and further incubation (60 min, 37°C), portions of the cells were assayed for 5'-Nuc activity in the isolated IcDIGs. The increase in 5'-Nuc during the basal incubation was set at 100 arb. units. Other portions of the cells (after 15 min incubation) were assayed for glucose transport which was set at 100 arb. units for the basal incubation. Means ± SD of at least 3 independent cell incubations with activity measurements in triplicate each are given.
Fig. 8: Effect of GPI-2350 on the glimepiride/insulin-induced metabolic activity. Isolated rat adipocytes were treated (5 min, 37°C) without or with GPI-2350 (Panel A, 50 µM; Panel B, increasing conc.; Panel C, 5 µM, 50 µM) and then incubated (15 min, 37°C) in the absence or presence of insulin (Ins, 10 nM) or glimepiride (Gli, 20 µM or increasing conc.) as indicated. The adipocytes were then assayed for glucose transport and isoproterenol-induced lipolysis. The activity is given relative to the absence of GPI-2350 in the control reaction (Panels A, basal) or in the insulin- and glimepiride-stimulated state (Panels B and C, set at 100). Means ± SD of at least 5 independent cell incubations with activity measurements in triplicate each are given.

[4] = relative to amphiphilic version in PM of basal adipocytes (100)
[5] = relative to amphiphilic version in hcDIGs of basal adipocytes (100)

In the case of `CCCCCCCCCCCCP1(=O)O[C@@H]2[C@H](O)[C@@H](O)[C@H](O)[C@@H](O)[C@@H]2O1` (mixture of isomers) [GPI-2350, myo-inositol-1,2-cyclo-dodecylphosphonic acid], the “effect on phospholipase activity” value [1] is reported as “not significantly affected”, the “5'-Nuc hydroph. PM” value [2, 4] is reported as 3±2 arb. units and the “Gce1 hydroph. PM” value [2, 4] is reported as 6±3 arb. units. The “aP hydroph. PM” value [2, 4] was 4±3 arb. units, the “5'-Nuc amphiph IcDIGs” value [2, 5] was 15±6 arb. units and the “5'-Nuc amphiph hcDIGs” value [2, 5] was 112±19 arb. units. For the same compound, the “5'-Nuc hydroph. IcDIGs” value [2, 5] was 3±1 arb. units, the “5'-Nuc hydroph. hcDIGs” value [2, 5] was 7±3 arb. units and the “Gce1 amphiph IcDIGs” value [2, 5] was 28±6 arb. units. For the same compound, the “Gce1 amphiph hcDIGs” value [2, 5] was 109±10 arb. units, the “Gce1 hydroph. IcDIGs” value [2, 5] was 14±7 arb. units and the “Gce1 hydroph. hcDIGs” value [2, 5] was 21±7 arb. units. The “aP amphiph IcDIGs” value [2, 5] was 19±13 arb. units, the “aP amphiph hcDIGs” value [2, 5] was 117±11 arb. units and the “effect on stimulation of glucose transport in response to glimepiride” value ([3]; 50 µM) was “almost complete blockade; also recorded: lower than control values”. For the same compound, the IC50 ([3]; Rattus norvegicus, Adipocyte) was 2 to 5 µM and the inhibition at 50 µM ([3]; Rattus norvegicus, Adipocyte, 50 µM, insulin 10 nM, read-out: reduction of insulin stimulation of glucose transport) was at most 25%.
